Where two headings read alike, the source gives them in different places.
Experiment: Pharmacokinetics in Sprague Dawley rats (plasma and brain concentrations, PK parameters)
Format: in vivo
Details: for half-life: read-out: T1/2 (converted)
Procedure: Pharmacokinetics for I-127, I-172 and I-210 were determined in Sprague Dawley rats or CD-1 mice by dosing intravenous (IV), subcutaneous (SC) or per oral (PO) using facility SOPs and sampling plasma at required time points. Species, formulation, route of administration and time points samples are listed below for each compound.
Compounds were extracted from plasma, injected on reverse phase HPLC, eluted with a gradient from 5% to 95% acetonitrile in water and quantified by mass spectrometry with internal standard. Data are expressed in ng compound per mL of plasma.

[1] = Sprague Dawley, rat, plasma, po, 10 mg/kg, Sprague Dawley rat, po 10 mg/kg, plasma, Rat 4, read-out: Concentration Rat 4
[2] = Sprague Dawley, rat, plasma, po, 10 mg/kg, Sprague Dawley rat, po 10 mg/kg, plasma, Rat 5, read-out: Concentration Rat 5
[3] = Sprague Dawley, rat, plasma, po, 10 mg/kg, Sprague Dawley rat, po 10 mg/kg, plasma, Rat 6, read-out: Concentration Rat 6
[4] = Sprague Dawley, rat, plasma, po, 10 mg/kg, Sprague Dawley rat, po 10 mg/kg, plasma, mean of 3 rats, read-out: Concentration Mean
[5] = Sprague-Dawley, rat, plasma, iv, 3 mg/kg, Sprague Dawley rat, iv 3 mg/kg, plasma, Rat 1, read-out: Concentration Rat 1
[6] = Sprague-Dawley, rat, plasma, iv, 3 mg/kg, Sprague Dawley rat, iv 3 mg/kg, plasma, Rat 2, read-out: Concentration Rat 2
[7] = Sprague-Dawley, rat, plasma, iv, 3 mg/kg, Sprague Dawley rat, iv 3 mg/kg, plasma, Rat 3, read-out: Concentration Rat 3
[8] = Sprague-Dawley, rat, plasma, iv, 3 mg/kg, Sprague Dawley rat, iv 3 mg/kg, plasma, mean of 3 rats, read-out: Concentration Mean

Question: For `O=C1CCC(N2C(=O)c3cccc(NCCOCCOCCNCc4ccc(-n5cc(NC(=O)c6coc(-c7ccnc(NCC8CC8)c7)n6)c(C(F)F)n5)cc4)c3C2=O)C(=O)N1` (stereo not drawn) [I-210, 2-[2-(Cyclopropylmethylamino)-4-pyridyl]-N-[3-(difluoromethyl)-1-[4-[[2-[2-[2-[[2-(2,6-dioxo-3-piperidyl)-1,3-dioxoisoindolin-4-yl]amino]ethoxy]ethoxy]ethylamino]methyl]phenyl]pyrazol-4-yl]oxazole-4-carboxamide], which AUC(0-t) (Sprague Dawley, rat, plasma, po, 10 mg/kg, Rat (Sprague Dawley) po 10 mg/kg, Mean, read-out: AUClast) is on record?
Answer: 15.2 ng·h/mL

Question: And the Cmax (Sprague Dawley, rat, plasma, po, 10 mg/kg, Rat (Sprague Dawley) po 10 mg/kg, Mean, read-out: Cmax)?
Answer: 2.91 ng/mL

Question: And the MRT inf (Sprague Dawley, rat, plasma, po, 10 mg/kg, Rat (Sprague Dawley) po 10 mg/kg, Mean, read-out: MRTInf_obs)?
Answer: 8.9 h

Question: And the half-life (Sprague Dawley, rat, plasma, po, 10 mg/kg, Rat (Sprague Dawley) po 10 mg/kg, Mean)?
Answer: 4.88 h

Question: And the MRT inf (Sprague Dawley, rat, plasma, po, 10 mg/kg, Rat (Sprague Dawley) po 10 mg/kg, individual Rat 4-6, read-out: MRTInf_obs)?
Answer: 7.27 h

Question: And the half-life (Sprague Dawley, rat, plasma, po, 10 mg/kg, Rat (Sprague Dawley) po 10 mg/kg, individual Rat 4-6)?
Answer: 3.72 h

Question: What about the concentration at 0.25 h [1] of the same molecule?
Answer: 0.716 ng/mL

Question: What about the concentration at 0.25 h [2] of the same molecule?
Answer: 0.359 ng/mL

Question: What about the concentration at 0.25 h [3] of the same molecule?
Answer: 0.3 ng/mL

Question: What about the concentration at 0.25 h [4] of the same molecule?
Answer: 0.458 ng/mL

Question: And the concentration at 0.5 h [1]?
Answer: 0.914 ng/mL

Question: What about the concentration at 0.5 h [2] of the same molecule?
Answer: 0.366 ng/mL

Question: What about the concentration at 0.5 h [3] of the same molecule?
Answer: 0.377 ng/mL

Question: What about the concentration at 0.5 h [4] of the same molecule?
Answer: 0.552 ng/mL

Question: What about the concentration at 1 h [1] of the same molecule?
Answer: 1.39 ng/mL

Question: What about the concentration at 1 h [2] of the same molecule?
Answer: 0.438 ng/mL

Question: And the concentration at 1 h [3]?
Answer: 0.426 ng/mL

Question: What about the concentration at 1 h [4] of the same molecule?
Answer: 0.75 ng/mL

Question: And the concentration at 2 h [1]?
Answer: 1.55 ng/mL

Question: And the concentration at 2 h [2]?
Answer: 2.39 ng/mL

Question: What about the concentration at 2 h [3] of the same molecule?
Answer: 0.737 ng/mL

Question: And the concentration at 2 h [4]?
Answer: 1.56 ng/mL

Question: What about the concentration at 4 h [1] of the same molecule?
Answer: 3.5 ng/mL

Question: What about the concentration at 4 h [2] of the same molecule?
Answer: 4.02 ng/mL

Question: What about the concentration at 4 h [3] of the same molecule?
Answer: 1.2 ng/mL

Question: And the concentration at 4 h [4]?
Answer: 2.91 ng/mL

Question: What about the concentration at 8 h [1] of the same molecule?
Answer: 1.66 ng/mL

Question: What about the concentration at 8 h [2] of the same molecule?
Answer: 2.46 ng/mL

Question: What about the concentration at 8 h [3] of the same molecule?
Answer: 0.71 ng/mL

Question: What about the concentration at 8 h [4] of the same molecule?
Answer: 1.61 ng/mL

Question: And the concentration at 4 h (Sprague-Dawley, rat, brain, iv, 3 mg/kg, Rat (Sprague Dawley) iv 3 mg/kg (IVB), brain, Group 1, Group 2, detected value multiplied by 3, read-out: brain Actual Conc.)?
Answer: 42.6 ng/g

Question: And the concentration at 4 h (Sprague-Dawley, rat, brain, iv, 3 mg/kg, Rat (Sprague Dawley) iv 3 mg/kg (IVB), brain, Mean, read-out: brain Actual Conc.)?
Answer: 39.9 ng/g

Question: What about the MRT inf (Sprague-Dawley, rat, plasma, iv, 3 mg/kg, Sprague Dawley rat, iv 3 mg/kg, Rat 1, read-out: MRTInf_obs Rat 1) of the same molecule?
Answer: 3.26 h

Question: What about the MRT inf (Sprague-Dawley, rat, plasma, iv, 3 mg/kg, Sprague Dawley rat, iv 3 mg/kg, Rat 2, read-out: MRTInf_obs Rat 2) of the same molecule?
Answer: 3.15 h

Question: What about the MRT inf (Sprague-Dawley, rat, plasma, iv, 3 mg/kg, Sprague Dawley rat, iv 3 mg/kg, Rat 3, read-out: MRTInf_obs Rat 3) of the same molecule?
Answer: 2.92 h

Question: And the MRT inf (Sprague-Dawley, rat, plasma, iv, 3 mg/kg, Sprague Dawley rat, iv 3 mg/kg, mean of 3 rats, read-out: MRTInf_obs Mean)?
Answer: 3.11 h

Question: And the concentration at 5 min [5]?
Answer: 671 ng/mL

Question: And the concentration at 5 min [6]?
Answer: 652 ng/mL

Question: What about the concentration at 5 min [7] of the same molecule?
Answer: 700 ng/mL

Question: And the concentration at 5 min [8]?
Answer: 674 ng/mL

Question: And the concentration at 0.25 h [5]?
Answer: 396 ng/mL

Question: What about the concentration at 0.25 h [6] of the same molecule?
Answer: 418 ng/mL

Question: And the concentration at 0.25 h [7]?
Answer: 469 ng/mL

Question: What about the concentration at 0.25 h [8] of the same molecule?
Answer: 428 ng/mL

Question: What about the concentration at 0.5 h [5] of the same molecule?
Answer: 307 ng/mL

Question: And the concentration at 0.5 h [6]?
Answer: 292 ng/mL

Question: And the concentration at 0.5 h [7]?
Answer: 312 ng/mL

Question: What about the concentration at 0.5 h [8] of the same molecule?
Answer: 304 ng/mL

Question: What about the concentration at 1 h [5] of the same molecule?
Answer: 236 ng/mL

Question: And the concentration at 1 h [6]?
Answer: 232 ng/mL

Question: And the concentration at 1 h [7]?
Answer: 207 ng/mL

Question: And the concentration at 1 h [8]?
Answer: 225 ng/mL

Question: And the concentration at 2 h [5]?
Answer: 141 ng/mL

Question: What about the concentration at 2 h [6] of the same molecule?
Answer: 159 ng/mL

Question: What about the concentration at 2 h [7] of the same molecule?
Answer: 132 ng/mL

Question: And the concentration at 2 h [8]?
Answer: 144 ng/mL

Question: And the concentration at 4 h [5]?
Answer: 86 ng/mL

Question: What about the concentration at 4 h [6] of the same molecule?
Answer: 77.7 ng/mL

Question: What about the concentration at 4 h [7] of the same molecule?
Answer: 64.5 ng/mL

Question: What about the concentration at 4 h [8] of the same molecule?
Answer: 76.1 ng/mL

Question: And the concentration at 8 h [5]?
Answer: 27.5 ng/mL

Question: And the concentration at 8 h [6]?
Answer: 24.8 ng/mL

Question: And the concentration at 8 h [7]?
Answer: 20.3 ng/mL

Question: What about the concentration at 8 h [8] of the same molecule?
Answer: 24.2 ng/mL

Question: And the concentration at 24 h [5]?
Answer: 0.454 ng/mL

Question: What about the concentration at 24 h [6] of the same molecule?
Answer: 0.545 ng/mL

Question: What about the concentration at 24 h [7] of the same molecule?
Answer: 0.488 ng/mL

Question: What about the concentration at 24 h [8] of the same molecule?
Answer: 0.496 ng/mL

Question: What about the Tmax (plasma, Rat (Sprague Dawley) po 10 mg/kg, individual Rat 4-6) of the same molecule?
Answer: 4 h

From patent US10874743B2, “IRAK degraders and uses thereof” (Kymera Therapeutics, Inc., priority 2017, dated 2020)
